The test deals with T1, human MRGPRX2 (Homo sapiens, UniProt Q96LB1).
T1 sequence (Q96LB1 1-330): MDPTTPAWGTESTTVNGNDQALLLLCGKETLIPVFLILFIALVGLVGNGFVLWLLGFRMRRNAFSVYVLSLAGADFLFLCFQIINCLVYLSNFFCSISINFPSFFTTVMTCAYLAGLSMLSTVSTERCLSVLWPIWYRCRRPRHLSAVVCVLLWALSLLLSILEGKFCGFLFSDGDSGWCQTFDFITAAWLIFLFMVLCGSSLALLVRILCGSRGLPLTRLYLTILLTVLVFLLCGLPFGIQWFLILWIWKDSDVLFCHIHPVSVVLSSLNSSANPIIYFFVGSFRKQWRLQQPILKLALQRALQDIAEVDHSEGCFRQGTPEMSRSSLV
Description: Ca2+ mobilization assay (FLIPR TETRA): inhibition of Cortistatin-14 mediated MRGPRX2 activation. Background: Calcium assays in cells follow changes in intracellular calcium, usually with a dye or a luminescent sensor.

pIC50: −log10 of the molar value.

As usually defined, the pIC50 is −log10 of the IC50, conventionally taken in molar units.

As to `C[C@@H](C(=O)Nc1ccc(OCC2CC2)nn1)N1CCC(F)(F)[C@@H](c2c[nH]c(=O)c(CN(C)C)c2)C1` [Example 231], the pIC50 is 5.50 to 7.00.

For `C[C@@H](C(=O)Nc1ccc(Oc2ccc(F)cc2F)cn1)N1CCC(F)(F)[C@@H](c2ccc(=O)[nH]c2)C1` [Example 4, (S)-2-((S)-4,4-difluoro-3-(6-oxo-1,6-dihydropyridin-3-yl)piperidin-1-yl)-N-(5-(2,4-difluorophenoxy)pyridin-2-yl)propanamide], the negative-log IC50 (pIC50) is ≥ 8.00.

`C[C@@H](C(=O)Nc1ccc(Oc2ncc(F)cc2F)cn1)[C@H]1CCC[C@@H](c2cc[n+]([O-])cc2)C1` [Example 290, 4-((1R,3S)-3-((R)-1-((5-((3,5-difluoropyridin-2-yl)oxy)pyridin-2-yl)amino)-1-oxopropan-2-yl)cyclohexyl)pyridine 1-oxide] gave a pIC50 of 7.00 to 8.00.

`C[C@@H](C(=O)Nc1ccc(Oc2c(F)cccc2F)cn1)N1CCC(F)(F)[C@@H](c2cc[n+]([O-])cc2)C1` [Example 130, 4-((S)-1-((S)-1-((5-(2,6-difluorophenoxy)pyridin-2-yl)amino)-1-oxopropan-2-yl)-4,4-difluoropiperidin-3-yl)pyridine 1-oxide]: the pIC50 was ≥ 8.00.

`CC(C(=O)Nc1cnc(Oc2ccc(F)cc2)cn1)C1CCC[C@@H](c2ccc(=O)[nH]c2)C1` (stereo partly drawn) [Example 284, N-(5-(4-fluorophenoxy)pyrazin-2-yl)-2-((3R)-3-(6-oxo-1,6-dihydropyridin-3-yl)cyclohexyl)propanamide] had a pIC50 of 7.00 to 8.00.

In the case of `C[C@@H](C(=O)Nc1ccc(C(F)(F)c2ccc(F)cc2)cn1)N1CCC(F)(F)[C@@H](c2ccc(=O)[nH]c2)C1` [Example 102, (S)-N-(5-(difluoro(4-fluorophenyl)methyl)pyridin-2-yl)-2-((S)-4,4-difluoro-3-(6-oxo-1,6-dihydropyridin-3-yl)piperidin-1-yl)propanamide], the pIC50 was 7.00 to 8.00.

For `C[C@@H](C(=O)Nc1ccc(C(F)(F)c2ccc(F)cc2)cn1)N1CCC(F)(F)[C@@H](c2cc[n+]([O-])cc2)C1` [Example 127, 4-((S)-1-((S)-1-((5-(difluoro(4-fluorophenyl)methyl)pyridin-2-yl)amino)-1-oxopropan-2-yl)-4,4-difluoropiperidin-3-yl)pyridine 1-oxide], the pIC50 was 7.00 to 8.00.

`C[C@@H](C(=O)Nc1ccc(OCC2CC2)nn1)N1CCC(F)(F)[C@@H](c2cc[n+]([O-])cc2)C1` (single isomer, unassigned) [Example 109]: the negative logarithm of the IC50 (pIC50) is 5.50 to 7.00.

Take `C[C@@H](C(=O)Nc1ccc(Oc2ccc(F)cc2F)cn1)N1CCC(F)(F)[C@@H](c2c[nH]c(=O)c(CNCC(F)(F)F)c2)C1` [Example 242, (S)-2-((S)-4,4-difluoro-3-(6-oxo-5-(((2,2,2-trifluoroethyl)amino)methyl)-1,6-dihydropyridin-3-yl)piperidin-1-yl)-N-(5-(2,4-difluorophenoxy)pyridin-2-yl)propanamide]: the pIC50 was ≥ 8.00.

On to `CC(=O)NCc1cc(C2CN(C(C)C(=O)Nc3ccc(Oc4ccc(F)cc4F)cn3)CCC2(F)F)cc[n+]1[O-]` (mixture of isomers) [Example 262, 2-(acetamidomethyl)-4-(1-(1-((5-(2,4-difluorophenoxy)pyridin-2-yl)amino)-1-oxopropan-2-yl)-4,4-difluoropiperidin-3-yl)pyridine 1-oxide], for which the pIC50 was ≥ 8.00.

With `C[C@@H](C(=O)Nc1ccc(F)cn1)N1CCC(F)(F)[C@@H](c2ccc(=O)[nH]c2)C1` [Example 79, (S)-2-((S)-4,4-difluoro-3-(6-oxo-1,6-dihydropyridin-3-yl)piperidin-1-yl)-N-(5-fluoropyridin-2-yl)propanamide], the pIC50 is 7.00 to 8.00.

Regarding `CNCc1cc([C@H]2CN([C@@H](C)C(=O)Nc3ccc(Oc4ccc(F)cc4F)cn3)CCC2(F)F)c[nH]c1=O` [Example 243, (S)-2-((S)-4,4-difluoro-3-(5-((methylamino)methyl)-6-oxo-1,6-dihydropyridin-3-yl)piperidin-1-yl)-N-(5-(2,4-difluorophenoxy)pyridin-2-yl)propanamide], the pIC50 was ≥ 8.00.

For the molecule `C[C@@H](C(=O)Nc1ccc(Oc2ccc(F)cc2)cn1)N1CCC(F)(F)[C@@H](c2c[nH]c(=O)c(N)n2)C1` [Example 108, (S)-2-((R)-3-(6-amino-5-oxo-4,5-dihydropyrazin-2-y1)-4,4-difluoropiperidin-1-y1)-N-(5-(4-fluorophenoxy)pyridin-2-yl)propanamide], the pIC50 is ≥ 8.00.

Take `C[C@@H](C(=O)Nc1ccc(Oc2ncc(F)cc2F)cn1)[C@H]1CCC(F)(F)[C@@H](c2cc[n+]([O-])cc2)C1` [Example 293, 4-((1R,5S)-5-((R)-1-((5-((3,5-difluoropyridin-2-yl)oxy)pyridin-2-yl)amino)-1-oxopropan-2-yl)-2,2-difluorocyclohexyl)pyridine 1-oxide]: the pIC50 was ≥ 8.00.

As for `C[C@@H](C(=O)Nc1ccc(C2CCCC2)cn1)N1CCC(F)(F)[C@@H](c2ccc(=O)[nH]c2)C1` [Example 14, (S)-N-(5-cyclopentyl-pyridin-2-yl)-2-((S)-4,4-difluoro-3-(6-oxo-1,6-dihydropyridin-3-yl)piperidin-1-yl)propanamide], the pIC50 is 7.00 to 8.00.

With `C[C@@H](C(=O)Nc1ccc(Cl)cn1)N1CCC[C@@H](c2c[nH]c(=O)c(CN)c2)C1` (single isomer, unassigned) [Example 175], the pIC50 was 4.50 to 5.50.

Take `C[C@@H](C(=O)Nc1ccc(Cl)cn1)N1CCC[C@@H](c2c[nH]c(=O)c(N)n2)C1` (single isomer, unassigned) [Example 174]: the pIC50 was 5.50 to 7.00.

`C[C@@H](C(=O)Nc1ccc(OCC2CC2)nn1)N1CCC(F)(F)[C@@H](c2ccc(=O)[nH]n2)C1` [Example 146, (S)-N-(6-(cyclopropylmethoxy)pyridazin-3-yl)-2-((R)-4,4-difluoro-3-(6-oxo-1,6-dihydropyridazin-3-yl)piperidin-1-yl)propanamide] gave a pIC50 of 7.00 to 8.00.

In turn, `C[C@@H](C(=O)Nc1ccc(Cl)cn1)N1CCC[C@@H](c2ccc(=O)n(Cc3ccccc3)c2)C1` (single isomer, unassigned) [Example 168] had a negative logarithm of the IC50 (pIC50) of 5.50 to 7.00.

In turn, `C[C@@H](C(=O)Nc1ccc(OCC2CC2)nn1)N1CCC(F)(F)C(c2ccncc2)C1` (stereo partly drawn) [Example 224, (2S)—N-(6-(cyclopropylmethoxy)pyridazin-3-yl)-2-(4,4-difluoro-3-(pyridin-4-yl)piperidin-1-yl)propanamide] showed a pIC50 of 5.50 to 7.00.

In turn, `C[C@@H](C(=O)Nc1ccc(Cl)cn1)N1CCC(F)(F)[C@@H](c2c[nH]c(=O)c(N)n2)C1` [Example 107, (S)-2-((R)-3-(6-amino-5-oxo-4,5-dihydropyrazin-2-y1)-4,4-difluoropiperidin-l-y1)-N-(5-chloropyridin-2-yl)propanamide] gave a pIC50 of 5.50 to 7.00.

Turning to `C[C@@H](C(=O)Nc1ccc(F)cn1)N1CCC(F)(F)[C@@H](c2c[nH]c(=O)c(CC(F)(F)F)c2)C1` [Example 151, (S)-2-((S)-4,4-difluoro-3-(6-oxo-5-(2,2,2-trifluoroethyl)-1,6-dihydropyridin-3-yl)piperidin-1-yl)-N-(5-fluoropyridin-2-yl)propanamide], the negative-log IC50 (pIC50) is 7.00 to 8.00.

In turn, `COc1ccc(NC(=O)C(C)N2CCC(F)(F)[C@@H](c3ccc(=O)[nH]c3)C2)nc1` (stereo partly drawn) [Example 44, 2-((S)-4,4-difluoro-3-(6-oxo-1,6-dihydropyridin-3-yl)piperidin-1-yl)-N-(5-methoxypyridin-2-yl)propanamide] gave a pIC50 of 4.50 to 5.50.

Turning to `C[C@@H](C(=O)Nc1ccc(OC2CCC2)nn1)N1CCC(F)(F)[C@@H](c2ccc(=O)[nH]c2)C1` [Example 100, (S)-N-(6-cyclobutoxy-pyridazin-3-yl)-2-((S)-4,4-difluoro-3-(6-oxo-1,6-dihydropyridin-3-yl)piperidin-1-yl)propanamide], the pIC50 is 5.50 to 7.00.

`C[C@@H](C(=O)Nc1ccc(OC2CCCC2)nn1)N1CCC(F)(F)[C@@H](c2ccc(=O)[nH]c2)C1` [Example 101, (S)-N-(6-(cyclopentyloxy)pyridazin-3-yl)-2-((S)-4,4-difluoro-3-(6-oxo-1,6-dihydropyridin-3-yl)piperidin-1-yl)propanamide] gave a negative-log IC50 (pIC50) of 7.00 to 8.00.

As to `C[C@@H](C(=O)Nc1ccc(Oc2ccc(F)cc2F)cn1)N1CCC(F)(F)C(c2c[nH]c(=O)c(C(O)C(F)(F)F)c2)C1` (stereo partly drawn) [Example 212, (2S)-2-(4,4-difluoro-3-(6-oxo-5-(2,2,2-trifluoro-1-hydroxyethyl)-1,6-dihydropyridin-3-yl)piperidin-1-yl)-N-(5-(2,4-difluorophenoxy)pyridin-2-yl)propanamide], the pIC50 is ≥ 8.00.

In turn, `CC(C(=O)Nc1ccc(Oc2ccncc2)cn1)N1CCC(F)(F)[C@@H](c2ccc(=O)[nH]c2)C1` (stereo partly drawn) [Example 64, 2-((S)-4,4-difluoro-3-(6-oxo-1,6-dihydropyridin-3-yl)piperidin-1-yl)-N-(5-(pyridin-4-yloxy)pyridin-2-yl)propanamide] had a negative logarithm of the IC50 (pIC50) of 5.50 to 7.00.

For `C[C@@H](C(=O)Nc1ccc2oc(C3CC3)nc2n1)N1CCC(F)(F)[C@@H](c2ccc(=O)[nH]c2)C1` [Example 17, (S)-N-(2-cyclopropyl-oxazolo[4,5-b]pyridin-5-yl)-2-((S)-4,4-difluoro-3-(6-oxo-1,6-dihydropyridin-3-yl)piperidin-1-yl)propanamide], the negative logarithm of the IC50 (pIC50) was 5.50 to 7.00.

Take `CC(N)c1cc(C2CN([C@@H](C)C(=O)Nc3ccc(OCC4CC4)nn3)CCC2(F)F)c[nH]c1=O` (stereo partly drawn) [Example 222, (2S)-2-(3-(5-(1-aminoethyl)-6-oxo-1,6-dihydropyridin-3-yl)-4,4-difluoropiperidin-1-yl)-N-(6-(cyclopropylmethoxy)pyridazin-3-yl)propanamide]: the pIC50 is 7.00 to 8.00.

These data come from US11976057B2, “MrgX2 antagonists” (GlaxoSmithKline Intellectual Property Development Limited, priority 2020, dated 2024).
